{"source": "paper PMC11674305", "about": "“Inhibition of Neural Crest Cell Migration by Strobilurin Fungicides and Other Mitochondrial Toxicants” (Cells, 2024)", "key": {"neural crest cells (NCC) [1]": {"tested_on": "neural crest cells (NCC)", "test": "Seahorse oxygen consumption rate (mitochondrial stress test)", "type": "cell-based, human", "procedure": "The Seahorse bioanalyzer simultaneously measures cellular oxygen consumption rates (OCR) and extracellular acidification rates (ECAR). Therefore, NCCs were seeded at least two days prior to the assays at a density of 80,000 cells/well on Seahorse XF96 V3 PS Cell Culture Microplates (Agilent, Santa Clara, CA, USA) in either glucose medium or galactose medium. After 24 h, the medium was exchanged. For the real-time ATP production rate and mitochondrial stress assay, the cartridge was hydrated at 0% CO2 and 37 °C, and the seahorse was turned on to stabilize the temperature one day prior. The medium was changed to Seahorse XF DMEM Medium (Agilent, Santa Clara, CA, USA) supplemented with 2 mM L-glutamine, 1 mM pyruvate and 18 mM glucose or galactose 1 h before the start of the assays. Directly before the start of the assay, the medium was exchanged again. The sensor cartridge was loaded with the test compounds anchored to the BMC10 (V) of the cMINC screen and the recommended concentrations of calibration compounds for a mitochondrial stress test. These were 5 μM oligomycin, 15 μM carbonyl cyanide p-trifluoro methoxyphenylhydrazone (FCCP) and 5 μM rotenone plus 5 μM antimycin A. Additionally, 1 μg/mL H-33342 was added to the rotenone and antimycin A injection to perform afterwards a cell count (Cellomics, Waltham, MA, USA), to which the data were normalized. Six technical replicates were used for control conditions, and three technical replicates were used for other samples. The software Seahorse Analytics (Agilent, Santa Clara, CA, USA) was used for the evaluation (https://seahorseanalytics.agilent.com (accessed on 30 October 2024))."}, "[2]": {"test": "Estimate of maximal tolerable/acceptable exposure", "parameters": "species or system human", "settings": "per day; LOEL with safety factor of 100, same as ADI of FAO/WHO 2012 report", "procedure": "An estimate of the maximal external exposure was obtained as the next step of the study. We used two different approaches, based on (i) setting the acceptable daily intake as the upper limit and (ii) referring to the no-observed-effect level (NOEL) in an animal study (detailed in Figure 7A). We concluded from both approaches that a plausible upper daily tolerated threshold is 0.09 mg/kg. This value was used in a physiologically based kinetic (PBK) model to obtain concentration time data for different tissues in mothers and their fetus. Assuming a repeated daily exposure, the maximal maternal plasma concentrations were predicted to be in the 200–300 nM range. The maximal steady-state fetal brain concentrations were predicted to be in the 100 nM range (5th and 95th percentiles for exposure in the population of 100 subjects were 60–190 nM) (Figure 7B). […] Next, we used some advanced assays to obtain a better understanding of the potency range of picoxystrobin when used in different experimental setups. […]\nFigure 7 Comparison of internal exposure estimates and primary effect potency. […] Data are expressed as means ± SEM from three independent biological experiments. ^# LOEL of animal study is based on a 90-day dog study (REF: https://www.fao.org/3/i3111e/i3111e.pdf (accessed on 15 June 2024)). *^,§ There is also an old (no longer valid) value by EFSA of 0.043 mg/kg/day from the year 2004 [71]. […]"}, "neural crest cells (NCC) [3]": {"tested_on": "neural crest cells (NCC)", "test": "Intracellular ATP measurement (CellTiterGlo)", "type": "cell-based, human", "settings": "after 60 min, at BMC10 (V) of cMINC", "procedure": "Cells were seeded at a density of 20,000 cells/well. The NCCs were treated with the BMC10 (V) of the cMINC screen for one hour, six hours or 24 h. Then, a CellTiterGlo-Triton mix was prepared. Therefore, a 0.5% Triton solution in PBS was prepared, and the commercial reagent mix CellTiterGlo 2.0 (Promgea, Madison, WI, USA) was added in a 1:1 ratio. An amount of 50 µL/well of the mix was added to 100 µL of medium. The plate was shaken for two minutes, and 100 µL of the cell mixture was transferred to a white measurement plate. For the blank value, only medium with the mix was measured. Luminescence data of samples were normalized to DMSO solvent controls, and the ATP data are given in % relative to “untreated cells”."}, "[4]": {"settings": "cited from earlier work"}}, "data": [{"compound": "CO/C=C(/C(=O)OC)c1ccccc1COc1cccc(C(F)(F)F)n1", "note": "[Picoxystrobin, picoxystrobin]", "values": [{"measurement": "lowering of OCR POD by 24 h pre-treatment", "setting": "neural crest cells (NCC) [1]; 24 h pre-treatment vs acute exposure", "result": 10, "unit": "fold"}, {"measurement": "BMC25 (OCR), POD", "setting": "neural crest cells (NCC) [1]; 24 h pre-treatment, galactose medium", "result": 0.4, "unit": "µM"}, {"measurement": "upper daily tolerated threshold / estimate of max. exposure [tolerable/acceptable]", "setting": "[2]", "result": 0.09, "unit": "mg/kg"}, {"measurement": "ATP levels", "setting": "neural crest cells (NCC) [3]", "result": "did not decrease"}, {"measurement": "blood to plasma ratio", "setting": "[4]", "result": 0.71}, {"measurement": "fraction unbound in blood plasma", "setting": "[4]", "result": 0.0127}]}]}
